We go through six molecules from patent US12624044B2, “SMARCA degraders and uses thereof” (Kymera Therapeutics, Inc., priority 2019, dated 2026).

Common to all, as to assay type: cell-based
Assay [1] concerns the target T1, SMARCA2 (Homo sapiens, UniProt P51531). In words: MSD SMARCA2 degradation in A549 cell line. To be noted: 24 h; for Dmax: A549, A549 cells; for DC50: A549 cells, read-out: SMARCA2 MSD A549 degradation 24 h: Average external-Abs DC50. An outline of the steps:
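A549 cells treated 24 h with compound at final 0.152-1000 nM (3-fold series, DMSO control). Lysates analyzed by MSD immunoassay using anti-SMARCA2/BRM detection and SULFO-TAG secondary antibodies; maximal degradation (Dmax %) reported as letter bins.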

Assay [2] concerns the target T1, SMARCA2. In words: SMARCA2 Western blot MV4-11 degradation. To be noted: 24 h; for Dmax: MV4-11, MV4-11 cells, read-out: SMARCA2 WB MV411 degradation 24 h: Average Dmax %; for DC50: MV4-11 cells, read-out: SMARCA2 WB MV411 degradation 24 h: Average external-Abs DC50. An outline of the steps:
(§1)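 MV4-11 cells treated with compound for 24 h, lysed in RIPA with protease/phosphatase inhibitors, and SMARCA2 and SMARCA4 (BRG1) levels assessed by Western blot with β-actin loading control and LI-COR fluorescent read-out. Maximal degradation (Dmax %) after 24 h binned into letter codes.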

Assay [3] deals with T2, SMARCA4 (Homo sapiens, UniProt P51532).
T2 construct: SMARCA2 and SMARCA4 protein degradation in MV4-11 cells; endogenous in cells; host or cells: MV4-11
T2 sequence (P51532 whole entry): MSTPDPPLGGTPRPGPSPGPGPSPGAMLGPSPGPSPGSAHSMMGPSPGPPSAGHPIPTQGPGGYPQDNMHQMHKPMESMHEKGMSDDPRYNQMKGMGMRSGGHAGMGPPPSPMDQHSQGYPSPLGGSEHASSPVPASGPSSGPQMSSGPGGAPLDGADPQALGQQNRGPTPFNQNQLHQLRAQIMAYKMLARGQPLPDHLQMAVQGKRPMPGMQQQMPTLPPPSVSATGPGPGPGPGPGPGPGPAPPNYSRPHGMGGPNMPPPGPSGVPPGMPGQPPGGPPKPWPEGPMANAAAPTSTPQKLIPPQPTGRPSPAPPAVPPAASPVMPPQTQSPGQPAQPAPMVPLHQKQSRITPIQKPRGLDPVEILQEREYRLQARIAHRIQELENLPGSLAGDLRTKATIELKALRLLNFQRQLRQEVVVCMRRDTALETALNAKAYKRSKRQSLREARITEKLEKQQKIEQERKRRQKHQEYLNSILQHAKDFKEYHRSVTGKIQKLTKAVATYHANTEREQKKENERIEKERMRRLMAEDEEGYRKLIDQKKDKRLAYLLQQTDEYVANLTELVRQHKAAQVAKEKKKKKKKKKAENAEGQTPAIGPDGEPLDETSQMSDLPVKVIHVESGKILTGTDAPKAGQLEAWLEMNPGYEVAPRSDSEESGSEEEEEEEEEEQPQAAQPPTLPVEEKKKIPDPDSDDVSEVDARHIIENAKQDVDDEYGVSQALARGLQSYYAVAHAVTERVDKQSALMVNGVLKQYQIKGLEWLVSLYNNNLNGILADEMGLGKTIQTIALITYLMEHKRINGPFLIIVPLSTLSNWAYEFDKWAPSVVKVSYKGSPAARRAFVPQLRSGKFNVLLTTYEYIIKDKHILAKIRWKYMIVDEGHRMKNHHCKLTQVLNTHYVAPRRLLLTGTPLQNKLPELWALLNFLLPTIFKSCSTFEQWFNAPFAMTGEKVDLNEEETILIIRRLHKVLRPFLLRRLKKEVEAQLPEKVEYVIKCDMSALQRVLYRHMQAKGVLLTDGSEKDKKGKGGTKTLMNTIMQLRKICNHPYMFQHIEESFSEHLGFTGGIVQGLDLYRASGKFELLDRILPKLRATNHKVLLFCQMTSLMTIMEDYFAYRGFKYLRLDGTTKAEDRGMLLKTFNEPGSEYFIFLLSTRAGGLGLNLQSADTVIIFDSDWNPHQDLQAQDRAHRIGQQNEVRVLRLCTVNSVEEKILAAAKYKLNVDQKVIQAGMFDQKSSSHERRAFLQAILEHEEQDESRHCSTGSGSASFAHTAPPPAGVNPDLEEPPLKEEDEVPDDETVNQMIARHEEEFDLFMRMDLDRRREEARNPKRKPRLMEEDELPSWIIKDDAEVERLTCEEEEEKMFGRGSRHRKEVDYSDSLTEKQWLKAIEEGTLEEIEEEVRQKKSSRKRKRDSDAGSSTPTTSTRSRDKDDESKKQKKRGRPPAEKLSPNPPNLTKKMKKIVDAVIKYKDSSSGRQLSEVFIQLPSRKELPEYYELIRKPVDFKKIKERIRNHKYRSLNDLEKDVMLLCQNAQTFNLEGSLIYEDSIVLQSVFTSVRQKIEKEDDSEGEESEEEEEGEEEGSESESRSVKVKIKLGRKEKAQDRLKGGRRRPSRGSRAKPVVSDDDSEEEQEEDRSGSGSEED
In words: SMARCA4 Western blot MV4-11 degradation. To be noted: 24 h; for Dmax: MV4-11, MV4-11 cells, read-out: SMARCA4 WB MV411 degradation 24 h: Average Dmax %; for DC50: MV4-11 cells, read-out: SMARCA4 WB MV411 degradation 24 h: Average external-Abs DC50. An outline of the steps: as §1

T1 sequence (P51531 whole entry): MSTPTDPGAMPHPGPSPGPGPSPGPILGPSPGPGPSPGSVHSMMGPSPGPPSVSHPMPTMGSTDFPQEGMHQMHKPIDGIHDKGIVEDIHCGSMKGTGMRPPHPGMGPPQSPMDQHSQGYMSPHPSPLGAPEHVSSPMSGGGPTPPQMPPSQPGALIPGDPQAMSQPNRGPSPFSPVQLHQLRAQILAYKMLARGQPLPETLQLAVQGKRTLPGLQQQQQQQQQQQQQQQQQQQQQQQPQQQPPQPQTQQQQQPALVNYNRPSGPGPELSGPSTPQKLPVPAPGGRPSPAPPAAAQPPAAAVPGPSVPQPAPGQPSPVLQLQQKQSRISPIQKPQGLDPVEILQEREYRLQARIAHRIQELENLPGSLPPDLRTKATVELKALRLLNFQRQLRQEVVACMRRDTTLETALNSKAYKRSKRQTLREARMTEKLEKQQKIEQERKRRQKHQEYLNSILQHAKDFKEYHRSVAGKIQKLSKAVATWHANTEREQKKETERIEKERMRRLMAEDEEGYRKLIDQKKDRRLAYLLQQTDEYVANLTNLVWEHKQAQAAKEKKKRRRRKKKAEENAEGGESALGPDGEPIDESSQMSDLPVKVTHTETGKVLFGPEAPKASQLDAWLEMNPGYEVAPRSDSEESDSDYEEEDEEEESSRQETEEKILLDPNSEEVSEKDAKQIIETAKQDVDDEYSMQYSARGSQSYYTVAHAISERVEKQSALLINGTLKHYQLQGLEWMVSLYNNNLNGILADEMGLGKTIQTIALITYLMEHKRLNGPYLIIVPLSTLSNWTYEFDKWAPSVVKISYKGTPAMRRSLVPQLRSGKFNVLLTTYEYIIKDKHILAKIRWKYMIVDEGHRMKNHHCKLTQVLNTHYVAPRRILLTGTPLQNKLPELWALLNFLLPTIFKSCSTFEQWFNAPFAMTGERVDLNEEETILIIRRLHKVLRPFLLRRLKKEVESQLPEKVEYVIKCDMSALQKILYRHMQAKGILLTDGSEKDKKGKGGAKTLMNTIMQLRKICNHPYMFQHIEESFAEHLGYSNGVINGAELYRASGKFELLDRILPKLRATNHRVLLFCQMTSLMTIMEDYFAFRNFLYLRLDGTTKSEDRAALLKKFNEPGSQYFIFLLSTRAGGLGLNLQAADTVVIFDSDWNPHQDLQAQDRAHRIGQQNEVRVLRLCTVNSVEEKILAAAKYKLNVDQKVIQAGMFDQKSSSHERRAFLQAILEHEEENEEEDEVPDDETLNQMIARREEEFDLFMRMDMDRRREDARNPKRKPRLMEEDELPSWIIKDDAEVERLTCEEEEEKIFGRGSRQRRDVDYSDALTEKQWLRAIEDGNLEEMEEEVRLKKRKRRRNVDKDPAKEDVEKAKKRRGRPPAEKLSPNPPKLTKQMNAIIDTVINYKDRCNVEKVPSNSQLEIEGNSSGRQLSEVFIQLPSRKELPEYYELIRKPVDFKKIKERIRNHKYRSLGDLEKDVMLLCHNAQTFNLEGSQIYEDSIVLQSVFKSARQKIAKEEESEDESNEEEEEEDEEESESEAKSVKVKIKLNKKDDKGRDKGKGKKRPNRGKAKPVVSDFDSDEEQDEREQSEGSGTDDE

Take `Cc1ncsc1-c1ccc(CNC(=O)[C@@H]2C[C@@H](O)CN2C(=O)[C@@H](NC(=O)[C@H]2CC3(C2)C[C@H](N2CCC(n4cc(-c5cc(-c6ccccc6O)nnc5N)cn4)CC2)C3)C(C)(C)C)cc1` (stereo partly drawn) [I-389]: the Dmax – broadly, the greatest extent of degradation seen – is over 90% in assay [1], 70 to 90% in assay [2] and 70 to 90% in assay [3]. Further, the values for the DC50 in assay [1], in assay [2] and in assay [3] were 100 to 500 nM, under 100 nM and under 100 nM, respectively.
As for `Cc1ncsc1-c1ccc(CNC(=O)[C@@H]2C[C@@H](O)CN2C(=O)[C@@H](NC(=O)[C@H]2CC[C@H](c3cnc(N4C5CCC4CN(c4cc(-c6ccccc6O)nnc4N)C5)nc3)CC2)C(C)(C)C)cc1` [I-337, (2S,4R)-1-((2S)-2-((1r,4S)-4-(2-(3-(3-amino-6-(2-hydroxyphenyl)pyridazin-4-yl)-3,8-diazabicyclo[3.2.1]octan-8-yl)pyrimidin-5-yl)cyclohexanecarboxamido)-3,3-dimethylbutanoyl)-4-hydroxy-N-(4-(4-methylthiazol-5-yl)benzyl)pyrrolidine-2-carboxamide], the greatest degradation seen (Dmax) in assay [1], in assay [2] and in assay [3] was over 90% each time. Also, the half-maximal degradation concentration (DC50) in assay [1], in assay [2] and in assay [3] was under 100 nM in each case.
For the molecule `Cn1c(=O)n(C2CCC(=O)NC2=O)c2ccc(CCCCCCCc3nccc(N4C5CCC4CN(c4cc(-c6ccccc6O)nnc4N)C5)n3)cc21` (stereo not drawn) [I-287, 3-(5-(7-(4-(3-(3-amino-6-(2-hydroxyphenyl)pyridazin-4-yl)-3,8-diazabicyclo[3.2.1]octan-8-yl)pyrimidin-2-yl)heptyl)-3-methyl-2-oxo-2,3-dihydro-1H-benzo[d]imidazol-1-yl)piperidine-2,6-dione], the Dmax in assay [1] was in the range of 70 to 90%; in assay [2], 70 to 90%; in assay [3] it was 50 to 70%. Also, the half-maximal degradation concentration (DC50) (in general, the midpoint of the concentration-degradation curve) in assay [1] is 100 to 500 nM; in assay [2], under 100 nM; in assay [3], over 1000 nM.
Take `Cc1ncsc1-c1ccc(CNC(=O)[C@@H]2C[C@@H](O)CN2C(=O)[C@@H](NC(=O)[C@H]2CC[C@@H](c3cnc(N4C5CCC4CN(c4cc(-c6ccccc6O)nnc4N)C5)nc3)CC2)C(C)(C)C)cc1` [I-336]: the Dmax in assay [1], in assay [2] and in assay [3] was over 90% in each case. In addition, the DC50 is 100 to 500 nM in assay [1], under 100 nM in assay [2] and under 100 nM in assay [3].
As to `Cc1ncsc1-c1ccc(CNC(=O)[C@@H]2C[C@@H](O)CN2C(=O)[C@@H](NC(=O)[C@H]2CC[C@H](CN3CCC(n4cc(-c5cc(-c6ccccc6O)nnc5N)cn4)CC3)CC2)C(C)(C)C)cc1` [I-403], the Dmax in assay [1] was over 90%; in assay [2], 70 to 90%; in assay [3] it was under 50%. Moreover, the DC50 was 100 to 500 nM in assay [1], under 100 nM in assay [2] and 501 to 1000 nM in assay [3].
For `Cc1ncsc1-c1ccc(CNC(=O)[C@@H]2C[C@@H](O)CN2C(=O)[C@@H](NC(=O)[C@H]2CC[C@@H](CN3CCC(n4cc(-c5cc(-c6ccccc6O)nnc5N)cn4)CC3)CC2)C(C)(C)C)cc1` [I-402], the figures for the maximal degradation (Dmax) in assay [1], in assay [2] and in assay [3] were 70 to 90%, 70 to 90% and under 50%, respectively. Besides, the DC50 in assay [1] was 100 to 500 nM; in assay [2], under 100 nM; in assay [3], over 1000 nM.
